Biological target: human Nav1.7 (Homo sapiens (Human), UniProt Q15858)
Assay: FRET-based membrane potential assay, recombinant human sodium channel Nav1.7
Type: cell-based
Settings: HEK293 cells stably expressing recombinant human Nav1.7; depolarization with veratridine (EC80) + scorpion venom
Procedure: FRET-Based Membrane Potential Assays.
Recombinant, Human Sodium Channel, Nav1.7.
Two days prior to the experiment, frozen HEK293 cells stably expressing recombinant human Nav1.7 were quickly thawed and plated at 25,000 cells/well in growth medium [DMEM (Invitrogen #11965) with 10% HI FBS (Invitrogen #10082), 2 mM glutamine, 100 units/mL penicillin, 0.1 mg/mL streptomycin (PSG, Sigma #G1146), and 500 μg/mL Geneticin (Invitrogen #10131)] in black-walled, clear-bottom 384-well poly-D-lysine-coated assay plates (Greiner Bio-One, Frickenhausen, Germany) and incubated in a humidified 5% CO2 incubator at 37° C. On the day of the assay, medium was removed by aspiration, and cells were washed with assay buffer [HBSS (Invitrogen, Carlsbad, Calif.) containing 20 mM HEPES (Invitrogen, Carlsbad, Calif.)]. After washing, 30 μL assay buffer containing the fluorescent voltage-sensor probe CC2-DMPE (Invitrogen, Carlsbad, Calif.) at 20 μM and 0.01% pluronic F-127 (Invitrogen, Carlsbad, Calif.) was added to the cells. Cells were incubated for 40 minutes at room temperature in the dark. Following the incubation, the cells were washed and 30 μL assay buffer containing 2.5 μM DiSBAC2(3) substrate (Invitrogen, Carlsbad, Calif.) and 0.5 mM VABSC-1 (Invitrogen, Carlsbad, Calif.) was added to the cells. The cells were incubated for 90 minutes at room temperature in the dark. Fluorescence readings were made using a FLIPR®^TETRA (Molecular Devices, Sunnyvale Calif.) equipped with voltage-sensor probe optics. At the start of each experiment the optimal (EC80) concentration of depolarizing agent (veratridine) was determined by testing a dilution curve of assay buffer containing veratridine (Sigma-Aldrich, St. Louis, Mo.) and 1 mg/mL scorpion venom (SVqq, from Leiurus quinquestriatus; Sigma-Aldrich, St. Louis, Mo.). […] Test compounds in the daughter plate were diluted to (˜3×) solutions in assay buffer immediately before assaying. Using the FLIPR®^TETRA, 20 μL of the (3×) compound solutions were first added to the cells, then 20 μL of depolarizing solution (3×EC80 veratridine+SVqq) were added 3 minutes later to activate the channel. Changes in fluorescence were measured at wavelengths of 440-480 nm and 565-625 nm over the course of the experimental run. Membrane depolarization was expressed as a ratio of the maximum F440-480 nm/F565-625 nm reading above average baseline F440-480 nm/F565-625 nm reading. IC50 values were calculated from curve fits of the ratio data using a four-parameter logistic Hill equation (Accelrys Assay Explorer 3.3 Client, Accelrys, San Diego, Calif.) with percent inhibition plotted against compound concentration.

Sequence of human Nav1.7 (Q15858 whole entry): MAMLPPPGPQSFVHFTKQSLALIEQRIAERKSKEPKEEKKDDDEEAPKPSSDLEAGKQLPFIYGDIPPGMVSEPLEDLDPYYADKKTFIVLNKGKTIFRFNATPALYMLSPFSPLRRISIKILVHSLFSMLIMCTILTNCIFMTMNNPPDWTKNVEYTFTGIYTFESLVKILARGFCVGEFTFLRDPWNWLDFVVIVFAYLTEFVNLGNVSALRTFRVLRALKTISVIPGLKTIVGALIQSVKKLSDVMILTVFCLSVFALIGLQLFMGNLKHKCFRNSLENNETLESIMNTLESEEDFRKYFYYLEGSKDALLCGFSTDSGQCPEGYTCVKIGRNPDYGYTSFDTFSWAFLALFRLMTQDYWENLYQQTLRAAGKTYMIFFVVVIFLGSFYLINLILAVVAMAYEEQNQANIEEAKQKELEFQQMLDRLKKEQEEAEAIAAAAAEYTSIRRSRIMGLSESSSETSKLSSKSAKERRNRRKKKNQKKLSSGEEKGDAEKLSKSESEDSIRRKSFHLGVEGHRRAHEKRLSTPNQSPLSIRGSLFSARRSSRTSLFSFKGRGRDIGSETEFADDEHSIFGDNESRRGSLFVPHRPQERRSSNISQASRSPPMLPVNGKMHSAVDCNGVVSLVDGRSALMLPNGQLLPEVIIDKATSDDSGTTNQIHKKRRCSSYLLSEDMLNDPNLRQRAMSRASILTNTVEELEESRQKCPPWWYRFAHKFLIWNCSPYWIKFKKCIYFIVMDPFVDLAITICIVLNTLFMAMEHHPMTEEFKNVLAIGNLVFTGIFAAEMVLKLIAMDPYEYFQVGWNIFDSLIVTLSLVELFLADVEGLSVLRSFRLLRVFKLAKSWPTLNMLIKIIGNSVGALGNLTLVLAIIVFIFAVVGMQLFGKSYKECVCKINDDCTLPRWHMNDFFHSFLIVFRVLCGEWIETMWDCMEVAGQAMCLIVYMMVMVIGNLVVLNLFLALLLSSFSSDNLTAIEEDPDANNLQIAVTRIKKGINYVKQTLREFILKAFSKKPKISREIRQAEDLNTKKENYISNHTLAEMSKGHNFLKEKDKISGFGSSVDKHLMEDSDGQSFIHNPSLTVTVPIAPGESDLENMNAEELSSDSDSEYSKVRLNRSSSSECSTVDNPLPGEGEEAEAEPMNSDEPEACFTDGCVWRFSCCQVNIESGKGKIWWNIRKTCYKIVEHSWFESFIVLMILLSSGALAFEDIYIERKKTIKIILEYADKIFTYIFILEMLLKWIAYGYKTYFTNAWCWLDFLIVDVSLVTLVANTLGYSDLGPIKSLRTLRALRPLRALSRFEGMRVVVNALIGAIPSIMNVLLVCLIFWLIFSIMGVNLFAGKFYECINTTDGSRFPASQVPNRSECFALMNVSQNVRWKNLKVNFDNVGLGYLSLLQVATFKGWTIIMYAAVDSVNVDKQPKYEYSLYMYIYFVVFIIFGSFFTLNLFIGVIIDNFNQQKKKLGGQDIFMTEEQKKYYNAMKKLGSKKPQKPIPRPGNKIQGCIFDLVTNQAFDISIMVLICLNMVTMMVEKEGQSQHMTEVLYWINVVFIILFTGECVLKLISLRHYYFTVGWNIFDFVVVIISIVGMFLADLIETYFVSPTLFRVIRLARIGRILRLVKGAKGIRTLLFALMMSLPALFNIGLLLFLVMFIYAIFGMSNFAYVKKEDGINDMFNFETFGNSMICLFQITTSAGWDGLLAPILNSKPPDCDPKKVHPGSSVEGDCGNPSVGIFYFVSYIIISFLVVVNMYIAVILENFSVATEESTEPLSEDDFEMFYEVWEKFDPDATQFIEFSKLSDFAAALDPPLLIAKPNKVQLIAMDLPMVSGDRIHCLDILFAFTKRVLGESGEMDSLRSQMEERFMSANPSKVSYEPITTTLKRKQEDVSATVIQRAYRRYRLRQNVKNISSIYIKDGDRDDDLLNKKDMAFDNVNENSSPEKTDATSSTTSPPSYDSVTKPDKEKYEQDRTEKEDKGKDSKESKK

SMILES | IC50 [µM]
O=C1N(CC(=O)N2C[C@H](O)C[C@@H]2c2cc(F)ccc2F)CCN1c1cccc2c1cnn2-c1ccccc1F [Example 121, 1-{2-[(2R,4R)-2-(2,5-difluorophenyl)-4-hydroxypyrrolidin-1-yl]-2-oxoethyl}-3-[1-(2-fluorophenyl)-1H-indazol-4-yl]imidazolidin-2-one] | 2.41
O=C1N(CC(=O)N2C[C@@H](O)C[C@@H]2c2cc(F)ccc2F)CCN1c1cccc2c1cnn2-c1ccccc1F [Example 122, 1-{2-[(2R,4S)-2-(2,5-difluorophenyl)-4-hydroxypyrrolidin-1-yl]-2-oxoethyl}-3-[1-(2-fluorophenyl)-1H-indazol-4-yl]imidazolidin-2-one] | 2.3
CC(C)CC(O)CN1CCN(c2cccc3c2cnn3-c2ccccc2F)C1=O (stereo not shown) [Example 123, 1-[1-(2-fluorophenyl)-1H-indazol-4-yl]-3-(2-hydroxy-4-methylpentyl)imidazolidin-2-one] | 0.346
CC(C)[C@H]1CCCCN1C(=O)CN1CCN(c2cccc3c2cnn3-c2ccccc2F)C1=O [Example 124, 1-[1-(2-fluorophenyl)-1H-indazol-4-yl]-3-{2-[(2R)-2-isopropylpiperidin-1-yl]-2-oxoethyl}imidazolidin-2-one] | 1.2
CC(C)[C@@H]1CCCN1C(=O)CN1CCN(c2cccc3c2cnn3-c2ccccc2F)C1=O [Example 125, 1-[1-(2-fluorophenyl)-1H-indazol-4-yl]-3-{2-[(2S)-2-isopropylpyrrolidin-1-yl]-2-oxoethyl}imidazolidin-2-one] | 1.41
CC(C)[C@H]1CCCN1C(=O)CN1CCN(c2cccc3c2cnn3-c2ccccc2F)C1=O [Example 126, 1-[1-(2-fluorophenyl)-1H-indazol-4-yl]-3-{2-[(2R)-2-isopropylpyrrolidin-1-yl]-2-oxoethyl}imidazolidin-2-one] | 0.343
O=C1N(CC(=O)N2C[C@H](F)C[C@@H]2c2cc(F)ccc2F)CCN1c1cccc2c1cnn2-c1ccccc1F [Example 127, 1-{2-[(2R,4R)-2-(2,5-difluorophenyl)-4-fluoropyrrolidin-1-yl]-2-oxoethyl}-3-[1-(2-fluorophenyl)-1H-indazol-4-yl]imidazolidin-2-one] | 1.56
O=C1N(CC(=O)N2CCC[C@@H]2c2ccccc2)CCN1c1cccc2c1cnn2-c1ccccc1F [Example 128, 1-[1-(2-fluorophenyl)-1H-indazol-4-yl]-3-{2-oxo-2-[(2R)-2-phenylpyrrolidin-1-yl]ethyl}imidazolidin-2-one] | 0.746
O=C1N(CC(=O)N2CCCC2c2ccccc2)CCN1c1cccc2c1cnn2-c1ccccc1F (stereo not shown) [Example 129, 1-[1-(2-fluorophenyl)-1H-indazol-4-yl]-3-[2-oxo-2-(2-phenylpyrrolidin-1-yl)ethyl]imidazolidin-2-one] | 0.403
O=C1N(c2ccccn2)CCN1c1cccc2c1cnn2-c1ccccc1F [Example 130, 1-[1-(2-fluorophenyl)-1H-indazol-4-yl]-3-(pyridin-2-yl)imidazolidin-2-one] | 1.85
O=C(OC1CCCCC1)N1CCN(c2cccc3c2cnn3-c2ccccc2F)C1=O [Example 131, cyclohexyl 3-[1-(2-fluorophenyl)-1H-indazol-4-yl]-2-oxoimidazolidine-1-carboxylate] | 0.286
CC(C)CCCC(=O)CN1CCN(c2cccc3c2cnn3-c2ccccc2F)C1=O [Example 132, 1-[1-(2-fluorophenyl)-1H-indazol-4-yl]-3-(6-methyl-2-oxoheptyl)imidazolidin-2-one] | 0.713
CC(C)CCCC(O)CN1CCN(c2cccc3c2cnn3-c2ccccc2F)C1=O (stereo not shown) [Example 133, 1-[1-(2-fluorophenyl)-1H-indazol-4-yl]-3-(2-hydroxy-6-methylheptyl)imidazolidin-2-one] | 0.525
O=C(CC1CCCC1)CN1CCN(c2cccc3c2cnn3-c2ccccc2F)C1=O [Example 134, 1-(3-cyclopentyl-2-oxopropyl)-3-[1-(2-fluorophenyl)-1H-indazol-4-yl]imidazolidin-2-one] | 1.26
O=C1N(CC(O)CC2CCCC2)CCN1c1cccc2c1cnn2-c1ccccc1F (stereo not shown) [Example 135, 1-(3-cyclopentyl-2-hydroxypropyl)-3-[1-(2-fluorophenyl)-1H-indazol-4-yl]imidazolidin-2-one] | 0.904
O=C(CC1CCCCC1)CN1CCN(c2cccc3c2cnn3-c2ccccc2F)C1=O [Example 136, 1-(3-cyclohexyl-2-oxopropyl)-3-[1-(2-fluorophenyl)-1H-indazol-4-yl]imidazolidin-2-one] | 0.928

SMILES | IC50 [µM]
O=C(OC1CCCC1)N1CCN2C(=O)N(c3cccc4c3cnn4-c3ccccc3F)CC2C1 (stereo not shown) [Example 137, cyclopentyl 2-[1-(2-fluorophenyl)-1H-indazol-4-yl]-3-oxohexahydroimidazo[1,5-a]pyrazine-7(1H)-carboxylate] | 2.3
O=C1N(c2cncnc2)CCN1c1cccc2c1cnn2-c1ccccc1F [Example 138, 1-[1-(2-fluorophenyl)-1H-indazol-4-yl]-3-(pyrimidin-5-yl)imidazolidin-2-one] | 3.31
O=C1N(CC(O)CC2CCCCC2)CCN1c1cccc2c1cnn2-c1ccccc1F (stereo not shown) [Example 139, 1-(3-cyclohexyl-2-hydroxypropyl)-3-[1-(2-fluorophenyl)-1H-indazol-4-yl]imidazolidin-2-one] | 2.41
O=C(CC1CCC1)CN1CCN(c2cccc3c2cnn3-c2ccccc2F)C1=O [Example 140, 1-(3-cyclobutyl-2-oxopropyl)-3-[1-(2-fluorophenyl)-1H-indazol-4-yl]imidazolidin-2-one] | 0.878
O=C1N(CC(O)CC2CCC2)CCN1c1cccc2c1cnn2-c1ccccc1F (stereo not shown) [Example 141, 1-(3-cyclobutyl-2-hydroxypropyl)-3-[1-(2-fluorophenyl)-1H-indazol-4-yl]imidazolidin-2-one] | 1.16
O=C(CC1CC2CCC1C2)CN1CCN(c2cccc3c2cnn3-c2ccccc2F)C1=O (stereo not shown) [Example 142, 1-[3-(bicyclo[2.2.1]hept-2-yl)-2-oxopropyl]-3-[1-(2-fluorophenyl)-1H-indazol-4-yl]imidazolidin-2-one] | 2
O=C(CN1CCN(c2cccc3c2cnn3-c2ccccc2F)C1=O)c1ccccc1 [Example 143, 1-[1-(2-fluorophenyl)-1H-indazol-4-yl]-3-(2-oxo-2-phenylethyl)imidazolidin-2-one] | 0.874
O=C(CN1CCN(c2cccc3c2cnn3-c2ccccc2F)C1=O)C1CCCC1 [Example 144, 1-(2-cyclopentyl-2-oxoethyl)-3-[1-(2-fluorophenyl)-1H-indazol-4-yl]imidazolidin-2-one] | 2.1
CC(=O)CN1CCN(c2cccc3c2cnn3-c2ccccc2F)C1=O [Example 145, 1-[1-(2-fluorophenyl)-1H-indazol-4-yl]-3-(2-oxopropyl)imidazolidin-2-one] | 6.23
C=CCCC(C)(O)CN1CCN(c2cccc3c2cnn3-c2ccccc2F)C1=O (stereo not shown) [Example 146, 1-[1-(2-fluorophenyl)-1H-indazol-4-yl]-3-(2-hydroxy-2-methylhex-5-en-1-yl)imidazolidin-2-one] | 3.12
O=C(CN1CCN(c2cccc3c2cnn3-c2ccccc2F)C1=O)c1ccc(F)nc1 [Example 147, 1-[1-(2-fluorophenyl)-1H-indazol-4-yl]-3-[2-(6-fluoropyridin-3-yl)-2-oxoethyl]imidazolidin-2-one] | 1.05
CCC(O)(CC(C)C)CN1CCN(c2cccc3c2cnn3-c2ccccc2F)C1=O (stereo not shown) [Example 148, 1-(2-ethyl-2-hydroxy-4-methylpentyl)-3-[1-(2-fluorophenyl)-1H-indazol-4-yl]imidazolidin-2-one] | 2.28
COc1cccc(C(=O)CN2CCN(c3cccc4c3cnn4-c3ccccc3F)C2=O)c1 [Example 149, 1-[1-(2-fluorophenyl)-1H-indazol-4-yl]-3-[2-(3-methoxyphenyl)-2-oxoethyl]imidazolidin-2-one] | 2.97
O=C(CN1CCN(c2cccc3c2cnn3-c2ccccc2F)C1=O)c1cccc(F)c1 [Example 150, 1-[1-(2-fluorophenyl)-1H-indazol-4-yl]-3-[2-(3-fluorophenyl)-2-oxoethyl]imidazolidin-2-one] | 3.16
O=C(CN1CCN(c2cccc3c2cnn3-c2ccccc2F)C1=O)c1ccc(C(F)(F)F)cc1 [Example 151, 1-[1-(2-fluorophenyl)-1H-indazol-4-yl]-3-{2-oxo-2-[4-(trifluoromethyl)phenyl]ethyl}imidazolidin-2-one] | 20

Source: patent US9783527B2, “Indazole ureas and method of use” (AbbVie Inc., priority 2014, dated 2017)
